Laboratory results as given in PMC12446476 (Nature Communications, 2025).
“And” between values parts separate entries of the source, which are not always exact repeats. Equal entries are not always repeated.

Test system: N. gonorrhoeae
Test: N. gonorrhoeae murine vaginal infection model, efficacy
Format: in vivo, mouse
Procedure: The N. gonorrhoeae female mouse vaginal model[45] was performed in accordance with the Guide for Care and Use of Laboratory Animals[75]. Animal rooms were maintained at a temperature range of 20–24 °C and humidity between 30% and 70%, with 12 h light/dark cycles. Ovariectomized BALB/c female mice (5–6 weeks, BioLASCO Taiwan Co., Ltd.) were treated with estradiol (0.23 mg/mouse) two days before infection and on the day of infection. Ovariectomized mice were used to avoid staging mice before treating them with estradiol. Beginning two days prior to infection and maintained until the end of the study, animals were treated twice daily with streptomycin (1.2 mg/mouse) and vancomycin (0.6 mg/mouse) each via intraperitoneal (IP) injection and received trimethoprim sulfate in the drinking water (0.4 mg/mL) to control vaginal microflora. Animals were anesthetised with pentobarbital (80 mg/kg), the vagina was rinsed with 50 mM HEPES (pH 7.4), and then inoculated with N. gonorrhoeae in pre-warmed PBS (0.02 mL/mouse containing ~1 × 10^5 CFU).
Control groups received either a single IP injection of ceftriaxone or 5% dextrose (vehicle) twice daily. Animals were sacrificed via CO2 asphyxiation at either 2 h (baseline), 26 and/or 50 h post-infection. Vaginal lavage was performed twice with 200 µL GC broth containing 0.05% saponin to recover bacteria. Bacterial burden in the lavage fluids was determined by performing 10-fold serial dilutions and plating on chocolate agar plates. Four strains were assessed using the model; ATCC 700825 is naturally streptomycin-resistant, whereas AR Bank0179-15, AR Bank0181-17 and WHO X-07 are derivatives of AR Bank0179, AR Bank0181 and WHO X, respectively, that were engineered for streptomycin resistance for use in the model.

[1] = Data 4, N. gonorrhoeae WHO X-07, ovariectomized BALB/c, 5 mg/kg IP, QD, 24h, individual animals, 5 mg/kg
[2] = Data 4, N. gonorrhoeae WHO X-07, ovariectomized BALB/c, 333.33 mg/kg IP, TID, 24h, individual animals
[3] = Data 4, N. gonorrhoeae WHO X-07, ovariectomized BALB/c, 333.33 mg/kg IP, TID, 48h, individual animals, 333.33 mg/kg
[4] = N. gonorrhoeae AR Bank0179-15, vaginal lavage, individual mice, Ceftriaxone 0.5 mg/kg IP, QD, 24h
[5] = N. gonorrhoeae AR Bank0179-15, vaginal lavage, individual mice, Ceftriaxone 5 mg/kg IP, QD, 24h
[6] = N. gonorrhoeae AR Bank0179-15, vaginal lavage, individual mice, Ceftriaxone 5 mg/kg IP, QD, 48h
[7] = N. gonorrhoeae AR Bank0181-17, vaginal lavage, individual mice, Ceftriaxone 0.5 mg/kg IP, QD, 24h
[8] = N. gonorrhoeae AR Bank0181-17, vaginal lavage, individual mice, Ceftriaxone 5 mg/kg IP, QD, 24h
[9] = N. gonorrhoeae AR Bank0181-17, vaginal lavage, individual mice, Ceftriaxone 5 mg/kg IP, QD, 48h
[10] = N. gonorrhoeae ATCC 700825, vaginal lavage, individual mice, Ceftriaxone 1 mg/kg IP, QD, 24h
[11] = N. gonorrhoeae ATCC 700825, vaginal lavage, individual mice, Ceftriaxone 5 mg/kg IP, QD, 24h
[12] = N. gonorrhoeae ATCC 700825, vaginal lavage, individual mice, Ceftriaxone 5 mg/kg IP, QD, 48h

CO/N=C(\C(=O)N[C@@H]1C(=O)N2C(C(=O)O)=C(CSc3nc(=O)c(=O)[nH]n3C)CS[C@H]12)c1csc(N)n1 [Ceftriaxone, reference compound]
Mean Diff. 0h vs. treatment, log10 CFU (AR Bank0179-15, 0.5 µg/mL ceftriaxone, 24h): 3.018
Mean Diff. 0h vs. treatment, log10 CFU (AR Bank0179-15, 5 µg/mL ceftriaxone, 24h): 3.186
Mean Diff. 0h vs. treatment, log10 CFU (AR Bank0179-15, 5 µg/mL ceftriaxone, 48h): 3.09
Mean Diff. 0h vs. treatment, log10 CFU (AR Bank0181-17, 0.5 µg/mL ceftriaxone, 24h): 0.924
Mean Diff. 0h vs. treatment, log10 CFU (AR Bank0181-17, 5 µg/mL ceftriaxone, 24h): 3.56
Mean Diff. 0h vs. treatment, log10 CFU (AR Bank0181-17, 5 µg/mL ceftriaxone, 48h): 3.56
efficacy against ceftriaxone-susceptible strains (ATCC 700825, AR Bank0179-15, AR Bank0181-17): effective
Mean Diff. 0h vs. treatment, log10 CFU (ATCC 700825, 1 µg/mL ceftriaxone, 24h): 2.882
Mean Diff. 0h vs. treatment, log10 CFU (ATCC 700825, 5 µg/mL ceftriaxone, 24h): 3.022
Mean Diff. 0h vs. treatment, log10 CFU (ATCC 700825, 5 µg/mL ceftriaxone, 48h): 3.082
CFU/mL lavage fluid [1]: 1450000 CFU/mL lavage fluid and 400000 CFU/mL lavage fluid and 1290000 CFU/mL lavage fluid and 480000 CFU/mL lavage fluid and 620000 CFU/mL lavage fluid
Log10(CFU/mL lavage fluid) [1]: 6.16 Log10(CFU/mL lavage fluid) and 5.60 Log10(CFU/mL lavage fluid) and 6.11 Log10(CFU/mL lavage fluid) and 5.68 Log10(CFU/mL lavage fluid) and 5.79 Log10(CFU/mL lavage fluid)
CFU/mL lavage fluid [2]: <5.00E+00 CFU/mL lavage fluid
Log10(CFU/mL lavage fluid) [2]: <0.70 Log10(CFU/mL lavage fluid)
CFU/mL lavage fluid [3]: 35 CFU/mL lavage fluid and <5.00E+00 CFU/mL lavage fluid
Log10(CFU/mL lavage fluid) [3]: 1.54 Log10(CFU/mL lavage fluid) and <0.70 Log10(CFU/mL lavage fluid)
CFU/mL lavage fluid [4]: 5 CFU/mL and <5 CFU/mL and 35 CFU/mL
Log10(CFU/mL lavage fluid) [4]: 0.7 Log10(CFU/mL lavage fluid) and <0.70 Log10(CFU/mL lavage fluid) and 1.54 Log10(CFU/mL lavage fluid)
CFU/mL lavage fluid [5]: <5 CFU/mL
Log10(CFU/mL lavage fluid) [5]: <0.70 Log10(CFU/mL lavage fluid)
CFU/mL lavage fluid [6]: 5 CFU/mL and <5 CFU/mL and 15 CFU/mL
Log10(CFU/mL lavage fluid) [6]: 0.7 Log10(CFU/mL lavage fluid) and <0.70 Log10(CFU/mL lavage fluid) and 1.18 Log10(CFU/mL lavage fluid)
CFU/mL lavage fluid [7]: 255 CFU/mL and 195 CFU/mL and 3900 CFU/mL and 37000 CFU/mL and 6600 CFU/mL
Log10(CFU/mL lavage fluid) [7]: 2.41 Log10(CFU/mL lavage fluid) and 2.29 Log10(CFU/mL lavage fluid) and 3.59 Log10(CFU/mL lavage fluid) and 4.57 Log10(CFU/mL lavage fluid) and 3.82 Log10(CFU/mL lavage fluid)
CFU/mL lavage fluid [8]: <5 CFU/mL
Log10(CFU/mL lavage fluid) [8]: <0.70 Log10(CFU/mL lavage fluid)
CFU/mL lavage fluid [9]: <5 CFU/mL
Log10(CFU/mL lavage fluid) [9]: <0.70 Log10(CFU/mL lavage fluid)
CFU/mL lavage fluid [10]: 50 CFU/mL and 5 CFU/mL and <5 CFU/mL
Log10(CFU/mL lavage fluid) [10]: 1.7 Log10(CFU/mL lavage fluid) and 0.7 Log10(CFU/mL lavage fluid) and <0.70 Log10(CFU/mL lavage fluid)
CFU/mL lavage fluid [11]: <5 CFU/mL and 10 CFU/mL
Log10(CFU/mL lavage fluid) [11]: <0.70 Log10(CFU/mL lavage fluid) and 1 Log10(CFU/mL lavage fluid)
CFU/mL lavage fluid [12]: <5 CFU/mL
Log10(CFU/mL lavage fluid) [12]: <0.70 Log10(CFU/mL lavage fluid)
Mean Diff. 0h vs. treatment, log10 CFU (WHO X-07, 5 µg/mL ceftriaxone, 24h): -1.846
Mean Diff. 0h vs. treatment, log10 CFU (WHO X-07, 1000 µg/mL ceftriaxone, 24h): 3.322
Mean Diff. 0h vs. treatment, log10 CFU (WHO X-07, 1000 µg/mL ceftriaxone, 48h): 3.154
efficacy against ceftriaxone-resistant strain WHO X-07 (at doses equivalent to those effective against susceptible strains): ineffective
increase in log10CFU/mL at 24 h (dose with simulated fT > MIC of 2 h): 1.9 log10CFU/mL
reduction in log10CFU/mL at 24 h (doses with simulated fT > MIC of 12 to 18 h): 2.0 log10CFU/mL
reduction in log10CFU/mL at 24 h (doses with simulated fT > MIC of >24 h): 3.3 log10CFU/mL
reduction in log10CFU/mL at 24 h (doses with simulated fT > MIC of ≥22 to 24 h): 2.9 log10CFU/mL
